Test results reported in BigSolDB 2.1.

CC(C)(C)C(O)(CCc1ccc(Cl)cc1)Cn1cncn1 (stereo not given)
solubility (mole fraction)
Settings | in 2-butanone | in acetone | in acetonitrile | in ethanol | in ethyl acetate | in isopropanol | in methanol | in n-propanol | in toluene
278.15 K | 0.0404 | 0.0304 | 0.00516 | 0.0103 | 0.0244 | 0.00877 | 0.0154 | 0.00704 | 0.0217
280.65 K | 0.0439 | 0.0336 | 0.00585 | 0.0118 | 0.027 | 0.0103 | 0.0174 | 0.00825 | 0.0244
283.15 K | 0.0476 | 0.038 | 0.00662 | 0.0136 | 0.03 | 0.012 | 0.0196 | 0.00953 | 0.0276
285.65 K | 0.0524 | 0.0416 | 0.00746 | 0.0157 | 0.0336 | 0.0138 | 0.0225 | 0.0112 | 0.0311
288.15 K | 0.0569 | 0.0461 | 0.00838 | 0.0179 | 0.0377 | 0.0159 | 0.0253 | 0.0133 | 0.0354
290.65 K | 0.0612 | 0.0507 | 0.00942 | 0.0203 | 0.0421 | 0.018 | 0.0284 | 0.0153 | 0.0404
293.15 K | 0.0659 | 0.0562 | 0.0107 | 0.0234 | 0.0466 | 0.0204 | 0.032 | 0.0175 | 0.0453
295.65 K | 0.0709 | 0.0613 | 0.012 | 0.0264 | 0.0512 | 0.023 | 0.0359 | 0.0201 | 0.0512
298.15 K | 0.076 | 0.0668 | 0.0134 | 0.0299 | 0.0564 | 0.026 | 0.04 | 0.0227 | 0.0578
300.65 K | 0.0815 | 0.0723 | 0.0149 | 0.0333 | 0.0612 | 0.0293 | 0.0444 | 0.0258 | 0.0644
303.15 K | 0.0869 | 0.0789 | 0.0165 | 0.037 | 0.0668 | 0.0328 | 0.0497 | 0.0296 | 0.0712
305.65 K | 0.0928 | 0.0851 | 0.0186 | 0.0411 | 0.0734 | 0.0367 | 0.0551 | 0.0338 | 0.079
308.15 K | 0.0987 | 0.0925 | 0.0208 | 0.0463 | 0.0797 | 0.0416 | 0.06 | 0.0388 | 0.0873
310.65 K | 0.106 | 0.101 | 0.0233 | 0.0515 | 0.0867 | 0.0462 | 0.0659 | 0.0444 | 0.0964
313.15 K | 0.113 | 0.11 | 0.0261 | 0.0572 | 0.0945 | 0.0519 | 0.0724 | 0.0498 | 0.105
